Assay results reported in patent US20240059671A1, “TYROSINE KINASE 2 (TYK2) DEGRADATION COMPOUNDS AND METHODS OF USE” (CULLGEN (SHANGHAI), INC., priority 2020, published 2024).

Target: TYK2 (Homo sapiens, UniProt P29597)
Assay: TYK2 protein degradation in MOLT-4 cells by immunoblotting
Format: cell-based
Set-up: endogenous in cells; host or cells: MOLT-4
Conditions: MOLT-4 cells, 24 hours
Summary of the method: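 MOLT-4 cells were exposed to compounds at 0.5 and 5 μM for 24 h, then lysed in RIPA buffer with protease and phosphatase inhibitors. TYK2 was detected by SDS-PAGE immunoblot with chemiluminescence, and band densitometry gave percent degradation.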

Sequence of TYK2 (P29597 whole entry): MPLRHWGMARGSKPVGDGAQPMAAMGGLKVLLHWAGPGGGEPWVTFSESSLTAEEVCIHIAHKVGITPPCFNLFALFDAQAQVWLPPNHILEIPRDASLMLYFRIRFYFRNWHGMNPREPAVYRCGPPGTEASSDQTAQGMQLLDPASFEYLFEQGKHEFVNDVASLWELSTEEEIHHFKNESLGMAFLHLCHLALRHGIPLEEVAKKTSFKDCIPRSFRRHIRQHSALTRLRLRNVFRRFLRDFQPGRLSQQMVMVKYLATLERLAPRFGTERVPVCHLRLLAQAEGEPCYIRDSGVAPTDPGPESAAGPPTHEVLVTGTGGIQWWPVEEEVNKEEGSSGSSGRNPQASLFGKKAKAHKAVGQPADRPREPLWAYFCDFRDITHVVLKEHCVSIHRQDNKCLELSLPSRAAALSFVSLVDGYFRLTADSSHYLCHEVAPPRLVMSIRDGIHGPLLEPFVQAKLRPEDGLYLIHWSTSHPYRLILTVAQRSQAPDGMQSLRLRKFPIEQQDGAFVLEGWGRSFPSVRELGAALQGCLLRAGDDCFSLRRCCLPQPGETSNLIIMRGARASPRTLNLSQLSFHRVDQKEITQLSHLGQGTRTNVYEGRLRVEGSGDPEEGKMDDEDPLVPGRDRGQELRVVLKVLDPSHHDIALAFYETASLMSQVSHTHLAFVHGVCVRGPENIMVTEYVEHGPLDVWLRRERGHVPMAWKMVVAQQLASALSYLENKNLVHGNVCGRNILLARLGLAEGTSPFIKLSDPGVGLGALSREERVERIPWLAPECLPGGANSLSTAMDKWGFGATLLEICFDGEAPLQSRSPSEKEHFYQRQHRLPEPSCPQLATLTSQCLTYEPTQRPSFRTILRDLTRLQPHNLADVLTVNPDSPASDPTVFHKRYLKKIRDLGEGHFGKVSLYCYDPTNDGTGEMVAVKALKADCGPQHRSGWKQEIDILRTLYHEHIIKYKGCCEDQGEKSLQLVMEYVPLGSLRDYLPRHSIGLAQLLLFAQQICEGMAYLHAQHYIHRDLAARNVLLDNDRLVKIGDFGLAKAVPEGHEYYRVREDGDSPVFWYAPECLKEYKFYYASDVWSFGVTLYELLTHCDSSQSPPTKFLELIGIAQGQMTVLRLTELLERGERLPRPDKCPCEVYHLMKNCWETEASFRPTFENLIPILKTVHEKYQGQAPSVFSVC

| Structure (SMILES) | TYK2 Degradation (0.5 μM) [%] | TYK2 Degradation (5 μM) [%] | TYK2 Degradation (MOLT-4, 0.5 μM) | TYK2 Degradation (MOLT-4, 5 μM) |
| --- | --- | --- | --- | --- |
| CNC(=O)c1nnc(NC(=O)CNC(=O)CCOCCOCCNc2cccc3c2C(=O)N(C2CCC(=O)NC2=O)C3=O)cc1Nc1cccc(-c2ncn(C)n2)c1OC (centres unmarked) [CPD-050, 6-(2-(3-(2-(2-((2-(2,6-Dioxopiperidin-3-yl)-1,3-dioxoisoindolin-4-yl)amino)ethoxy)ethoxy)propanamido)acetamido)-4-((2-methoxy-3-(1-methyl-1H-1,2,4-triazol-3-yl)phenyl)amino)-N-methylpyridazine-3-carboxamide] | ≤20 | ≤20 | – | – |
| CNC(=O)c1nnc(NC(=O)C2CC2)cc1Nc1cccc(-c2ncn(CCNC(=O)CCCCCCNc3ccc4c(c3)C(=O)N(C3CCC(=O)NC3=O)C4=O)n2)c1OC (centres unmarked) [CPD-017, 6-(Cyclopropanecarboxamido)-4-((3-(1-(2-(7-((2-(2,6-dioxopiperidin-3-yl)-1,3-dioxoisoindolin-5-yl)amino)heptanamido)ethyl)-1H-1,2,4-triazol-3-yl)-2-methoxyphenyl)amino)-N-methylpyridazine-3-carboxamide] | ≤20 | – | – | – |
| CNC(=O)c1nnc(NC(=O)C2CC2)cc1Nc1cccc(-c2ncn(CCNC(=O)CCCCC(=O)N[C@H](C(=O)N3C[C@H](O)C[C@H]3C(=O)NCc3ccc(-c4scnc4C)cc3)C(C)(C)C)n2)c1OC [CPD-077, N^1-(2-(3-(3-((6-(Cyclopropanecarboxamido)-3-(methylcarbamoyl)pyridazin-4-yl)amino)-2-methoxyphenyl)-1H-1,2,4-triazol-1-yl)ethyl)-N^6-((S)-1-((2S,4R)-4-hydroxy-2-((4-(4-methylthiazol-5-yl)benzyl)carbamoyl)pyrrolidin-1-yl)-3,3-dimethyl-1-oxobutan-2-yl)adipamide] | ≤20 | ≤20 | – | – |
| CNC(=O)c1nnc(NC(=O)C2CC2)cc1Nc1cccc(-c2ncn(CCNC(=O)COCCOCC(=O)N[C@H](C(=O)N3C[C@H](O)C[C@H]3C(=O)NCc3ccc(-c4scnc4C)cc3)C(C)(C)C)n2)c1OC [CPD-068, 6-(Cyclopropanecarboxamido)-4-((3-(1-((S)-13-((2S,4R)-4-hydroxy-2-((4-(4-methylthiazol-5-yl)benzyl)carbamoyl)pyrrolidine-1-carbonyl)-14,14-dimethyl-4,11-dioxo-6,9-dioxa-3,12-diazapentadecyl)-1H-1,2,4-triazol-3-yl)-2-methoxyphenyl)amino)-N-methylpyridazine-3-carboxamide] | ≤20 | ≤20 | – | – |
| CNC(=O)c1nnc(NC(=O)C2CC2)cc1Nc1cccc(-c2ncn(CCNC(=O)CCCCCCNc3cccc4c3C(=O)N(C3CCC(=O)NC3=O)C4=O)n2)c1OC (centres unmarked) [CPD-006, 6-(Cyclopropanecarboxamido)-4-((3-(1-(2-(7-((2-(2,6-dioxopiperidin-3-yl)-1,3-dioxoisoindolin-4-yl)amino)heptanamido)ethyl)-1H-1,2,4-triazol-3-yl)-2-methoxyphenyl)amino)-N-methylpyridazine-3-carboxamide] | ≤20 | – | – | – |
| CNC(=O)c1nnc(NC(=O)C2CC2)cc1Nc1cccc(-c2ncn(CCNC(=O)COCCOCCOCCOCCOCC(=O)N[C@H](C(=O)N3C[C@H](O)C[C@H]3C(=O)NCc3ccc(-c4scnc4C)cc3)C(C)(C)C)n2)c1OC [CPD-073, N^1-(2-(3-(3-((6-(Cyclopropanecarboxamido)-3-(methylcarbamoyl)pyridazin-4-yl)amino)-2-methoxyphenyl)-1H-1,2,4-triazol-1-yl)ethyl)-N^17-((S)-1-((2S,4R)-4-hydroxy-2-((4-(4-methylthiazol-5-yl)benzyl)carbamoyl)pyrrolidin-1-yl)-3,3-dimethyl-1-oxobutan-2-yl)-3,6,9,12,15-pentaoxaheptadecanediamide] | ≤20 | ≤20 | – | – |
| CNC(=O)c1nnc(NC(=O)CNC(=O)CNC(=O)C[C@H](NC(=O)[C@@H]2C[C@@H](O)CN2C(=O)[C@@H](NC(=O)C2(F)CC2)C(C)(C)C)c2ccc(-c3scnc3C)cc2)cc1Nc1cccc(-c2ncn(C)n2)c1OC [CPD-086, 6-(2-(2-((S)-3-((2S,4R)-1-((S)-2-(1-Fluorocyclopropane-1-carboxamido)-3,3-dimethylbutanoyl)-4-hydroxypyrrolidine-2-carboxamido)-3-(4-(4-methylthiazol-5-yl)phenyl)propanamido)acetamido)acetamido)-4-((2-methoxy-3-(1-methyl-1H-1,2,4-triazol-3-yl)phenyl)amino)-N-methylpyridazine-3-carboxamide] | – | – | C (C: ≤20% TYK2 degradation) | – |
| CNC(=O)c1nnc(Nc2ccc(N3CCN(C(=O)CCC(=O)N[C@H](C(=O)N4C[C@H](O)C[C@H]4C(=O)NCc4ccc(-c5scnc5C)cc4)C(C)(C)C)CC3)cn2)cc1Nc1cccc(-c2ncn(C)n2)c1OC [CPD-096, 6-((5-(4-(4-(((S)-1-((2S,4R)-4-Hydroxy-2-((4-(4-methylthiazol-5-yl)benzyl)carbamoyl)pyrrolidin-1-yl)-3,3-dimethyl-1-oxobutan-2-yl)amino)-4-oxobutanoyl)piperazin-1-yl)pyridin-2-yl)amino)-4-((2-methoxy-3-(1-methyl-1H-1,2,4-triazol-3-yl)phenyl)amino)-N-methylpyridazine-3-carboxamide] | – | – | B (B: <60% TYK2 degradation, and >20% TYK2 degradation) | C (C: ≤20% TYK2 degradation) |
| CNC(=O)c1nnc(NC(=O)C2CC2)cc1Nc1cccc(-c2ncn(CCNC(=O)CCOCCOCCOCCC(=O)N[C@H](C(=O)N3C[C@H](O)C[C@H]3C(=O)NCc3ccc(-c4scnc4C)cc3)C(C)(C)C)n2)c1OC [CPD-071, 6-(Cyclopropanecarboxamido)-4-((3-(1-((5)-18-((2S,4R)-4-hydroxy-2-((4-(4-methylthiazol-5-yl)benzyl)carbamoyl)pyrrolidine-1-carbonyl)-19,19-dimethyl-4,16-dioxo-7,10,13-trioxa-3,17-diazaicosyl)-1H-1,2,4-triazol-3-yl)-2-methoxyphenyl)amino)-N-methylpyridazine-3-carboxamide] | ≤20 | ≤20 | – | – |
| CNC(=O)c1nnc(Nc2ccc(N3CCN(C(=O)CCCCCC(=O)N[C@H](C(=O)N4C[C@H](O)C[C@H]4C(=O)NCc4ccc(-c5scnc5C)cc4)C(C)(C)C)CC3)cn2)cc1Nc1cccc(-c2ncn(C)n2)c1OC [CPD-099, 6-((5-(4-(7-(((S)-1-((2S,4R)-4-hydroxy-2-((4-(4-methylthiazol-5-yl)benzyl)carbamoyl)pyrrolidin-1-yl)-3,3-dimethyl-1-oxobutan-2-yl)amino)-7-oxoheptanoyl)piperazin-1-yl)pyridin-2-yl)amino)-4-((2-methoxy-3-(1-methyl-JH-1,2,4-triazol-3-yl)phenyl)amino)-N-methylpyridazine-3-carboxamide] | – | – | A (A: ≥60% TYK2 degradation) | B (B: <60% TYK2 degradation, and >20% TYK2 degradation) |
| CNC(=O)c1nnc(NC(=O)C2CC2)cc1Nc1cccc(-c2ncn(CCNC(=O)CCOCCNc3cccc4c3C(=O)N(C3CCC(=O)NC3=O)C4=O)n2)c1OC (centres unmarked) [CPD-008, 6-(Cyclopropanecarboxamido)-4-((3-(1-(2-(3-(2-((2-(2,6-dioxopiperidin-3-yl)-1,3-dioxoisoindolin-4-yl)amino)ethoxy)propanamido)ethyl)-1H-1,2,4-triazol-3-yl)-2-methoxyphenyl)amino)-N-methylpyridazine-3-carboxamide] | ≤20 | – | – | – |
| CNC(=O)c1nnc(NC(=O)CNC(=O)COCC(=O)N[C@H](C(=O)N2C[C@H](O)C[C@H]2C(=O)NCc2ccc(-c3scnc3C)cc2)C(C)(C)C)cc1Nc1cccc(-c2ncn(C)n2)c1OC [CPD-025, 6-(2-(2-(2-(((S)-1-((2S,4R)-4-Hydroxy-2-((4-(4-methylthiazol-5-yl)benzyl)carbamoyl)pyrrolidin-1-yl)-3,3-dimethyl-1-oxobutan-2-yl)amino)-2-oxoethoxy)acetamido)acetamido)-4-((2-methoxy-3-(1-methyl-1H-1,2,4-triazol-3-yl)phenyl)amino)-N-methylpyridazine-3-carboxamide] | ≤20 | ≤20 | – | – |
| CNC(=O)c1nnc(NC(=O)CNC(=O)CCOCCOCCNc2ccc3c(c2)C(=O)N(C2CCC(=O)NC2=O)C3=O)cc1Nc1cccc(-c2ncn(C)n2)c1OC (centres unmarked) [CPD-062, 6-(2-(3-(2-(2-((2-(2,6-Dioxopiperidin-3-yl)-1,3-dioxoisoindolin-5-yl)amino)ethoxy)ethoxy)propanamido)acetamido)-4-((2-methoxy-3-(1-methyl-1H-1,2,4-triazol-3-yl)phenyl)amino)-N-methylpyridazine-3-carboxamide] | ≤20 | ≤20 | – | – |
| CNC(=O)c1nnc(Nc2ccc(N3CCN(C(=O)CCCCC(=O)N[C@H](C(=O)N4C[C@H](O)C[C@H]4C(=O)NCc4ccc(-c5scnc5C)cc4)C(C)(C)C)CC3)cn2)cc1Nc1cccc(-c2ncn(C)n2)c1OC [CPD-098, 6-((5-(4-(6-(((S)-1-((2S,4R)-4-Hydroxy-2-((4-(4-methylthiazol-5-yl)benzyl)carbamoyl)pyrrolidin-1-yl)-3,3-dimethyl-1-oxobutan-2-yl)amino)-6-oxohexanoyl)piperazin-1-yl)pyridin-2-yl)amino)-4-((2-methoxy-3-(1-methyl-1H-1,2,4-triazol-3-yl)phenyl)amino)-N-methylpyridazine-3-carboxamide] | – | – | C (C: ≤20% TYK2 degradation) | C (C: ≤20% TYK2 degradation) |
| CNC(=O)c1nnc(NC(=O)CNC(=O)CCCCCCCNc2cccc3c2C(=O)N(C2CCC(=O)NC2=O)C3=O)cc1Nc1cccc(-c2ncn(C)n2)c1OC (centres unmarked) [CPD-048, 6-(2-(8-((2-(2,6-Dioxopiperidin-3-yl)-1,3-dioxoisoindolin-4-yl)amino)octanamido)acetamido)-4-((2-methoxy-3-(1-methyl-1H-1,2,4-triazol-3-yl)phenyl)amino)-N-methylpyridazine-3-carboxamide] | 50 | ≤20 | – | – |
